Common to all, as to test: relative viability (nuclei count vs DMSO), 5 days (fraction); higher = more cells survive
Compound in test [1]: CC1=NN=C(O1)C2=NN=C(C=C2)N3CCC(CC3)OC4=C(C=CC(=C4)F)Cl + NC(=O)Nc1cc(-c2cccc(F)c2)sc1C(=O)N[C@H]1CCCNC1 [AZD7762] (partner 0.2 µM)
The essentials: (§1)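 Relative viability was taken as the ratio of nuclei in treated wells to nuclei in vehicle wells. Lung cancer cell lines in 1536-well plates received compounds by pin tool one day after seeding, either one drug alone or a fixed anchor-drug dose plus five library-drug doses (not always all listed) in √10 steps. Nuclei were counted on 4× images after 5 days of treatment, and values are medians of duplicate plates.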

Compound in test [2]: CC1=NN=C(O1)C2=NN=C(C=C2)N3CCC(CC3)OC4=C(C=CC(=C4)F)Cl + COc1cccc2cc(-c3nc([C@H]4CC[C@H](C(=O)O)CC4)n4ncnc(N)c34)[nH]c12 [OSI-027] (partner 0.5 µM)
The gist of the method: as §1

Compound in test [3]: CC(C)C[C@@H](C(=O)N[C@H](C(=O)OC1CCCC1)c1ccccc1)[C@H](O)C(=O)NO [Tosedostat] + CS(=O)(=O)CCNCc1ccc(-c2ccc3ncnc(Nc4ccc(OCc5cccc(F)c5)c(Cl)c4)c3c2)o1 [Lapatinib] (partner 2 µM)
The essentials: as §1

Compound in test [4]: CC(C)C[C@@H](C(=O)N[C@H](C(=O)OC1CCCC1)c1ccccc1)[C@H](O)C(=O)NO [Tosedostat] + COc1cc2c(Oc3ccc(NC(=O)C4(C(=O)Nc5ccc(F)cc5)CC4)cc3F)ccnc2cc1OCCCN1CCOCC1 [Foretinib] (partner 0.25 µM)
The essentials:
as §1

Regarding RERF-LC-KJ, the relative viability was 0.53 in test [1] (first compound 0.253 µM); 0.569 in test [1] (first compound 0.8 µM); 0.564 in test [1] (first compound 2.53 µM); 0.554 in test [1] (first compound 8 µM); 0.524 in test [2] (first compound 0.253 µM); 0.531 in test [2] (first compound 0.8 µM). Moreover, the relative viability in test [2] (first compound 2.53 µM) was 0.622; in test [2] (first compound 8 µM), 0.479; in test [3] (first compound 0.02 µM), 0.824; in test [3] (first compound 0.06325 µM) it was 0.908; in test [3] (first compound 0.2 µM), 0.855; in test [3] (first compound 0.6325 µM), 0.821. For the same cell line, the relative viability in test [3] (first compound 2 µM) worked out at 0.879; in test [4] (first compound 0.02 µM), 0.851; in test [4] (first compound 0.06325 µM), 0.912; in test [4] (first compound 0.2 µM), 0.77; in test [4] (first compound 0.6325 µM) it was 0.884; in test [4] (first compound 2 µM), 0.8.
